{"source": "patent US20230013244A1", "about": "(BioIncept, LLC, priority 2014, published 2023)", "key": {"Monocytes": {"system": "Monocytes", "assay": "FITC-PIF binding to mare immune cells, flow cytometry, monocytes", "assay_type": "cell-based", "from_the_text": "(§1) Method: whole blood was collected from jugular vein of pregnant (n=4) and non-pregnant (n=8) mares into lithium heparin vacutainers. Whole blood was layered over histopaque (Sigma) density gradient and red cells were allowed to settle through the gradient, leaving a leukocyte-rich plasma layer above. Cells were washed twice in sterile PBS and any remaining RBCs lysed with 0.16 M ammonium chloride solution. […] Cell types were separated based upon their scatter characteristics. […] FIG. 20 and Table 20 show mean+/−SEM in both pregnant and non-pregnant mares, and depicts binding characteristics showing significant differences between FITC-PIF and control, P<0.001."}, "Lymphocytes": {"system": "Lymphocytes", "assay": "FITC-PIF binding to mare immune cells, flow cytometry, lymphocytes", "assay_type": "cell-based", "from_the_text": "as §1"}, "[1]": {"system": "PBMCs (CD3+, CD4+/CD25+/FoxP3+, CD8+/CD25+ cells)", "assay": "FITC-PIF binding to naive T-cell subsets of PBMCs, two- and three-color flow cytometry", "assay_type": "cell-based, human"}, "Granulocytes": {"system": "Granulocytes", "assay": "FITC-PIF binding to mare immune cells, flow cytometry, granulocytes", "assay_type": "cell-based", "from_the_text": "as §1"}}}
{"sequence": "GRVDPSNKSMPKDIA [PIFscr, scrambled PIF, control peptide]", "values": [{"measurement": "binding to Monocytes, Mean", "setting": "Monocytes; Non-pregnant mares, 1 ug/ml", "value": 1.10}, {"measurement": "binding to Monocytes, Mean", "setting": "Monocytes; Non-pregnant mares, 5 ug/ml", "value": 5.20}, {"measurement": "binding to Monocytes, Mean", "setting": "Monocytes; Pregnant mares, 1 ug/ml", "value": 0.78}, {"measurement": "binding to Lymphocytes, Mean", "setting": "Lymphocytes; Non-pregnant mares, 1 ug/ml", "value": 0.27}, {"measurement": "binding to Lymphocytes, Mean", "setting": "Lymphocytes; Pregnant mares, 1 ug/ml", "value": 0.12}, {"measurement": "binding to Lymphocytes, Mean", "setting": "Lymphocytes; Pregnant mares, 5 ug/ml", "value": 0.78}, {"measurement": "binding to CD4+/CD25+/FoxP3+ cells", "setting": "[1]; 0-100 uM", "value": "minimal binding"}, {"measurement": "binding to CD3+/CD4+ cells", "setting": "[1]; FIG. 10A", "value": "not replicated"}, {"measurement": "binding to Granulocytes, Mean", "setting": "Granulocytes; Non-pregnant mares, 1 ug/ml", "value": 0.26}, {"measurement": "binding to Granulocytes, Mean", "setting": "Granulocytes; Pregnant mares, 1 ug/ml", "value": 0.09}, {"measurement": "binding to Granulocytes, Mean", "setting": "Granulocytes; Pregnant mares, 5 ug/ml", "value": 0.93}]}
